In ChEMBL document CHEMBL4316655, “Sesquiterpenoids from the Endophytic Fungus Rhinocladiella similis” (J Nat Prod, 2019) one finds IC50 and MIC data, which are given here for four compounds.

In brackets after ≈: the same amount, converted by molar mass.

For one experiment, the system named is L5178Y. Description: Cytotoxicity against mouse L5178Y cells by MTT assay. The class given is functional, cell-based. (In general: Tetrazolium assays rely on reduction of a dye to a coloured formazan, in cell work by metabolically active cells.)
Another experiment has as its system Enterococcus faecium. As to the kind of experiment: Antibacterial activity against Enterococcus faecium ATCC 35667 by broth microdilution method. The class given is functional. For orientation: Dilution methods test growth across graded concentrations, often in twofold steps.
The next experiment deals with Klebsiella pneumoniae. Description: Antibacterial activity against Klebsiella pneumoniae ATCC 13883 by broth microdilution method. The class given is functional.
The test system of a further experiment is Staphylococcus aureus. As to the kind of experiment: Antibacterial activity against Staphylococcus aureus ATCC 29213 by broth microdilution method. The class given is functional.

Usually IC50 stands for the concentration at which inhibition is half-maximal. `CC(C)[C@H]1CC[C@H](CO)[C@@H]2[C@@H]1C=C(C(=O)O)C[C@H]2O`: in the experiment on L5178Y, the IC50 was determined as 8.7 µM.

In general, MIC refers to the smallest concentration in the dilution series that meets the test's criterion for growth inhibition. Consider `CC(C)[C@H]1CC[C@@](O)(CCl)[C@H]2C(=O)OCC(C(=O)O)=C[C@H]12` [HEPTELIDIC ACID CHLOROHYDRIN], for which the MIC in the experiment on Enterococcus faecium stood at 50 µM (≈ 15.8 µg/mL); in the experiment with Klebsiella pneumoniae, 100 µM (≈ 31.7 µg/mL); with Staphylococcus aureus, 50 µM (≈ 15.8 µg/mL).

`CC(C)[C@H]1CC[C@@](O)(COC(=O)C2=C[C@@H]3[C@@H](C(C)C)CC[C@@](O)(CCl)[C@H]3C(=O)OC2)[C@H]2C(=O)OCC(C(=O)O)=C[C@H]12`: half-maximal inhibition with L5178Y (IC50) required 5 µM.

`CC(C)[C@H]1CCC(CO)=C[C@@H]1/C=C(\CO)C(=O)O` [GLIOCLADIC ACID] returned an IC50 in the experiment with L5178Y of 24.4 µM.
